Reference: patent US7135475B2, “Amide substituted xanthine derivatives” (Hoffmann-La Roche Inc., priority 2002, dated 2006)

These molecules were tested against T1, recombinant human cytosolic PEPCK (Homo sapiens, UniProt P35558) (assay: PEPCK enzyme assay (coupled pyruvate kinase/lactate dehydrogenase, absorbance at 340)). Conditions: recombinant human cytosolic GST-PEPCK; GTP and OAA at 3 fold and 10 fold Km; final DMSO 10%; room temperature, twenty minutes; read-out: In vitro IC50.
T1 sequence (P35558 1-622): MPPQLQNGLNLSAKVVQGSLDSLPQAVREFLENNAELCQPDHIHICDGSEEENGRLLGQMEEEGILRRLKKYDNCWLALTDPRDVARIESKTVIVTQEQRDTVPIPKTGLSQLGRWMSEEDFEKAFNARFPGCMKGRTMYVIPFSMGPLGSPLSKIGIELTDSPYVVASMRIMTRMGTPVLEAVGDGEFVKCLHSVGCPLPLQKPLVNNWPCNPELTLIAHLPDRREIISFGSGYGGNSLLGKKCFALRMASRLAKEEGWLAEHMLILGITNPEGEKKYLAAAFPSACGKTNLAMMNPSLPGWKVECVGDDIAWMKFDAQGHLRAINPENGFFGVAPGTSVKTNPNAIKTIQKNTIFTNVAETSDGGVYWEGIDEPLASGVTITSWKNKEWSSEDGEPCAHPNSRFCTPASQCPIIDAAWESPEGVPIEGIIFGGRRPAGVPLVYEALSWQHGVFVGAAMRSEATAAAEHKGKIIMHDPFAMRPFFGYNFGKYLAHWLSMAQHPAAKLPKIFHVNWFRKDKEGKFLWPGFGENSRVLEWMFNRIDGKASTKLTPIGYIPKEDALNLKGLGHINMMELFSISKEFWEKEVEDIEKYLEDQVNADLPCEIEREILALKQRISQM
Format: biochemical
Procedure: E. coli cells expressing GST-PEPCK were suspended in 5 volumes of lysis buffer (50 mM Tris-hydroxymethyl aminomethyl (TRIS), 150 mM sodium chloride (NaCl), 10 mM ethylene-diametetraacetic acid (EDTA), 5 mM dithiothreitol(DTT), 1% Nonidet P-40, pH 7.4) in the presence of protease inhibitors, incubated with lysozyme at 200 micrograms/ml for 30 min. at room temperature, and sonicated 4×30 seconds at 4 degrees C. After centrifugation at 12,000×g for 20 min. to remove insoluble material, the supernatant was loaded onto glutathione Sepharose (Pharmacia), washed with lysis buffer followed by washing with lysis buffer in the absence of NP-40. GST-PEPCK was eluted with the same buffer containing 20 mM glutathione. The eluted protein was concentrated and dialyzed against 25 mM Hepes(N-[2-hydroxyethyl]piperazine-N′[2-ethanesulfonic acid), 150 mM NaCl, 2.5 mM EDTA, 5 mM DTT, 30% glycerol, pH 7.4, and stored at −20 ° C.
The inhibitory effect of the compounds of the present invention on PEPCK enzymatic activity was determined using recombinant human cytosolic PEPCK, expressed and purified from E.coli as a GST-fusion. Guanosine triphosphate (GTP) and manganese dependent PEPCK enzyme activity catalyzed the decarboxylation of oxalacetate leading to the formation of guanosine diphosphate (GDP) and phosphoenol pyruvate (PEP). This reaction is coupled to pyruvate kinase and lactate dehydrogenase catalyzed reactions and the overall reaction rate determined by measuring the change in absorbance at 340 nm (Chang, H. C. and Lane M. D., J. Biol.Chem. 241:2413–2420, 1966). The following modifications were made to the protocol: 2.5 μg of recombinant, human cytosolic glutathione-S-transferase (GST)-PEPCK was added to a reaction mixture at room temperature which contained 0.3 mM GTP, 0.3 mM oxaloacetate (OAA), 3 mM magnesium chloride (MgCl2), 0.075 mM manganese chloride (MnCl2), 30 mM potassium phosphates (KPO4), pH 7.6, 1 mM dithiothreitol (DTT), 0.2 mM adenosine diphosphate (ADP), 1 mM nicotinamide adenine dinucleotide, reduced form (NADH), 0.9 Units/ml each of pyruvate kinase and lactate dehydrogenase and 1 mg/ml bovine serum albumin (BSA). Test compounds were added such that final concentration of DMSO was 10%. Reactions were run for twenty minutes.
Km values for GTP and OAA were determined according to Michelis-Menton conditions as described in Cornish-Bowden (Fundamentals of Enzyme Kinetics, 1995) in essentially the coupled assay conditions described above. […] Test compounds were added to reactions over a range of concentrations and IC50's were calculated from plots of inhibitor concentration versus enzyme rate. This method of determination of IC50 values is equally applicable to calculations based on PEPCK cellular assay.
The in vitro biological activity of several representative preferred compounds of the present invention in the foregoing PEPCK enzymatic assay is presented in Table 1.

Going from `CC(=O)Nc1ccc(Cc2nc3c([nH]2)c(=O)n(Cc2ccccc2F)c(=O)n3C[C@@H]2C[C@@H]2C(=O)O)cc1` (relative stereo) [Example 47, 2-[8-(4-Acetylamino-benzyl)-1-(2-fluorobenzyl)-2,6-dioxo-1,2,6,7-tetrahydro-purin-3-ylmethyl]-cyclopropanecarboxylic acid] to `CC(=O)Nc1ccc(Cc2nc3c([nH]2)c(=O)n(Cc2ccccc2F)c(=O)n3CC2CC2)cc1` [Example 42, N-{4-[3-Cyclopropylmethyl-1-(2-fluorobenzyl)-2,6-dioxo-2,3,6,7-tetrahydro-1H-purin-8-ylmethyl]-phenyl}-acetamide], the IC50 rises from 560 nM to 930 nM (1.7-fold).

`CC(=O)Nc1cccc(C(=O)N(C)c2ccc(Cc3nc4c([nH]3)c(=O)n(Cc3ccccc3F)c(=O)n4CC3CC3)cc2)n1` [Example 79, 6-Acetylamino-pyridine-2-carboxylic acid {4-[3-cyclopropylmethyl-1-(2-fluorobenzyl)-2,6-dioxo-2,3,6,7-tetrahydro-1H-purin-8-ylmethyl]-phenyl}-methyl-amide] and `Cc1ccc(C(=O)N(C)c2ccc(Cc3nc4c([nH]3)c(=O)n(Cc3ccccc3F)c(=O)n4CC3CC3)cc2)cn1` [Example 86, N-{4-[3-cyclopropylmethyl-1-(2-fluorobenzyl)-2,6-dioxo-2,3,6,7-tetrahydro-1H-purin-8-ylmethyl]-phenyl}-6,N-dimethyl-nicotinamide] are within 1.5-fold of each other in IC50: 560 nM for the first, 420 nM for the second.

`Cc1cncc(C(=O)N(C)c2ccc(Cc3nc4c([nH]3)c(=O)n(Cc3ccccc3F)c(=O)n4CC3CC3)cc2)c1` [Example 85, N-{4-[3-cyclopropylmethyl-1-(2-fluorobenzyl)-2,6-dioxo-2,3,6,7-tetrahydro-1H-purin-8-ylmethyl]-phenyl}-5,N-dimethyl-nicotinamide] and `CN(C(=O)c1ccc(N)nc1)c1ccc(Cc2nc3c([nH]2)c(=O)n(Cc2ccccc2F)c(=O)n3CC2CC2)cc1` [Example 94, 6-Amino-N-{4-[3-cyclopropylmethyl-1-(2-fluorobenzyl)-2,6-dioxo-2,3,6,7-tetrahydro-1H-purin-8-ylmethyl]-phenyl}-N-methyl-nicotinamide] are within 1.5-fold of each other in IC50: 400 nM for the first, 340 nM for the second.

`Cc1ccc(C(=O)N(C)c2ccc(Cc3nc4c([nH]3)c(=O)n(Cc3ccccc3F)c(=O)n4CC3CCC3)cc2)cn1` [Example 88, N-{4-[3-Cyclobutylmethyl-1-(2-fluorobenzyl)-2,6-dioxo-2,3,6,7-tetrahydro-1H-purin-8-ylmethyl]-phenyl}-6,N-dimethyl-nicotinamide] and `CN(C(=O)c1ccc(C#N)nc1)c1ccc(Cc2nc3c([nH]2)c(=O)n(Cc2ccccc2F)c(=O)n3CC2CC2)cc1` [Example 92, 6-Cyano-N-{4-[3-cyclopropylmethyl-1-(2-fluorobenzyl)-2,6-dioxo-2,3,6,7-tetrahydro-1H-purin-8-ylmethyl]-phenyl}-N-methyl-nicotinamide] are within 1.5-fold of each other in IC50: 340 nM for the first, 440 nM for the second.

`COc1ccc(C(=O)N(C)c2ccc(Cc3nc4c([nH]3)c(=O)n(Cc3ccccc3F)c(=O)n4CC3CC3)cc2)c(OC)n1` [Example 90, N-{4-[3-cyclopropylmethyl-1-(2-fluorobenzyl)-2,6-dioxo-2,3,6,7-tetrahydro-1H-purin-8-ylmethyl]-phenyl}-2,6-dimethoxy-N-methyl-nicotinamide] and `CN(C(=O)c1cccnc1N)c1ccc(Cc2nc3c([nH]2)c(=O)n(Cc2ccccc2F)c(=O)n3CC2CC2)cc1` [Example 93, 2-Amino-N-{4-[3-cyclopropylmethyl-1-(2-fluorobenzyl)-2,6-dioxo-2,3,6,7-tetrahydro-1H-purin-8-ylmethyl]-phenyl}-N-methyl-nicotinamide] are within 1.5-fold of each other in IC50: 340 nM for the first, 280 nM for the second.

Molecule `CN(C(=O)Cc1cccnc1)c1ccc(Cc2nc3c([nH]2)c(=O)n(Cc2ccccc2F)c(=O)n3CC2CC2)cc1` [Example 91, N-{4-[3-cyclopropylmethyl-1-(2-fluorobenzyl)-2,6-dioxo-2,3,6,7-tetrahydro-1H-purin-8-ylmethyl]-phenyl}-N-methyl-2-pyridin-3-yl-acetamide] has an IC50 of 410 nM.
